# Assay results reported in PubChem BioAssay (NCI).
#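 Each compound was tested at five concentrations against cells in 96-well plates for 48 hours. Definition used: TGI = concentration required for complete inhibition of growth.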
# What was measured:
# Experiment in all cases: DTP human tumour cell line panel, 48 h
# [1] = test system: NCI/ADR-RES ovarian
# [2] = test system: DU-145 prostate
# [3] = test system: BT-549 breast
# [4] = test system: SK-MEL-28 melanoma
# [5] = test system: HCT-116 colon
# [6] = test system: UO-31 renal
# [7] = test system: A498 renal
# [8] = test system: 786-0 renal
# [9] = test system: SK-MEL-5 melanoma
# [10] = test system: SW-620 colon
# [11] = test system: MDA-N
SMILES,TGI [1] [µM],TGI [2] [µM],TGI [3] [µM],TGI [4] [µM],TGI [5] [µM],TGI [6] [µM],TGI [7] [µM],TGI [8] [µM],TGI [9] [µM],TGI [10] [µM],TGI [11] [µM]
CCC1(CC)C(=O)CC[C@@]2(C)C1=CC[C@H]1[C@@H]3CC[C@H](O)[C@@]3(C)CC[C@@H]12,> 100,85.4,> 100,> 100,63.8,34.7,44.6,29.6,> 100,63.1,> 100
Cc1cc2ccccc2n1CC(=O)NCC(C)C,> 100,> 100,> 100,> 100,> 100,> 100,–,> 100,> 100,> 100,> 100
CN(C)CCOC(=O)COc1ccc(Cl)cc1,> 100,> 100,–,> 100,> 100,> 100,> 100,> 100,> 100,> 100,> 100
O=C(O)/C=C(/CC(=O)O)C(=O)O,46.1,45.7,43.7,43.7,35.6,33.7,32.7,33.3,44.1,39.8,54.6
Cc1c2c3cc(O)ccc3nc-2n(C)c2ccccc12,3.4,14.3,8.52,5.97,10.1,2.72,–,10.5,2.29,2.7,8.37
CCN(CC)CCO/N=C1\CC[C@H]2[C@@H]3CC=C4C[C@@H](O)CC[C@]4(C)[C@H]3CC[C@]12C,> 100,65.7,44.4,31.1,30.2,32.1,35.9,31.5,25.4,30.4,58.1
CCOC(=O)c1ccc(C(=O)C(C(C)=O)C(=O)OC(C)(C)C)n1C (stereo not drawn),> 100,> 100,> 100,> 100,> 100,> 100,> 100,> 100,> 100,> 100,> 100
O=C1NC(=S)N/C1=C/c1ccccc1O,> 100,> 100,> 100,> 100,> 100,> 100,–,> 100,> 100,> 100,> 100
CC1(C)O[C@@H](CO)[C@H]([C@@]23OC[C@H]4OC(C)(C)OC4[C@@H]2OC(C)(C)O3)O1 (stereo partly drawn),> 100,> 100,–,> 100,> 100,> 100,–,> 100,> 100,> 100,> 100
C#CCNC(Cc1cnc[nH]1)C(=O)O (stereo not drawn),> 100,> 100,–,> 100,> 100,> 100,> 100,> 100,> 100,> 100,> 100
S=C(N/N=C\C=N/NC(=S)N1CCCCCC1)N1CCCCCC1,> 85.9,> 86.2,> 100,> 100,> 100,> 100,> 100,> 100,> 100,> 100,> 100
CC(=O)O[C@H]1C#C/C=C\C#CC[C@@H]2C(=O)N(C(=O)OC(C)(C)C)[C@@H]12,74.7,54.8,> 81.4,> 100,> 89.4,31.2,> 100,51.7,> 100,> 100,> 100
O=C1/C(=C/c2ccccc2)CCc2ccc(Cl)nc21,> 63.7,24.4,32.1,39.6,7,20.2,34.6,21.8,20.1,18.6,18.5
COc1ccc(C(O)c2ccc3c(c2)OCO3)cc1 (stereo not drawn),> 100,> 100,> 100,> 100,> 100,> 100,> 100,> 100,–,> 100,> 100
N#CC1=C(N)C(C#N)(C#N)C(c2ccc(F)cc2)C=C1C1CC1 (stereo not drawn),41.8,25.6,12.5,39.3,15.8,27.2,23.5,21.9,16.2,56,6.67
OC1CCCC1C(O)(C(F)(F)F)C(F)(F)F (stereo not drawn),> 100,> 100,–,> 100,> 100,> 100,> 100,> 100,> 100,> 100,> 100
Cn1c(=O)c2c(-c3ccccc3)onc2n(C)c1=O,> 100,–,45.2,–,> 100,> 100,> 100,86.5,> 100,> 100,> 100
CC(=O)/C=C/C=C(\C)CC/C=C(\C)CC(C)C,–,> 100,–,> 100,62.8,> 100,83.3,97.3,35.5,35.3,> 100
CS(=O)(=O)OCCN1CCC2(CC1)SSC1(CCN(CCOS(C)(=O)=O)CC1)S2,> 100,–,> 100,> 100,> 100,> 100,56.1,> 100,> 100,> 100,> 100
Cc1ccc(S(=O)(=O)n2cncc2CO)cc1,> 100,> 100,> 100,> 100,> 100,> 100,–,> 100,> 100,> 100,> 100
Cc1cc(Cc2c(F)c(F)c(Cc3cc(C)no3)c(F)c2F)on1,> 100,> 100,> 100,> 100,> 100,> 100,> 100,> 100,> 100,–,> 100

SMILES,TGI [1] [µM],TGI [2] [µM],TGI [3] [µM],TGI [4] [µM],TGI [5] [µM],TGI [6] [µM],TGI [7] [µM],TGI [8] [µM],TGI [9] [µM],TGI [10] [µM],TGI [11] [µM]
O=C(Nn1c(-c2ccccc2)nc2ccccc2c1=O)c1ccccn1,> 100,> 100,> 100,> 100,> 100,> 100,> 100,> 100,> 100,> 100,–
Cc1ccc(C(=O)N(C(C)C)C(C)C)cc1N=NN(C)C,> 100,> 100,> 100,> 100,> 100,> 100,–,> 100,> 100,> 100,> 100
OCC1OC(n2cnc3cccnc32)CC1O (stereo not drawn),> 100,> 100,> 100,> 100,> 100,> 100,> 100,> 100,> 100,> 100,> 100
CC(CCC(=O)O)[C@H]1CCC2[C@H]3C(CC[C@@]21C)[C@@]1(C)CCC(O)C[C@H]1C[C@@H]3O (stereo partly drawn),> 100,> 100,> 100,> 100,> 100,> 100,> 100,> 100,–,> 100,> 100
Cc1cc(C)c(S(=O)(=O)N(CCCCN)OCCCN)c(C)c1,36.5,29.4,33.8,32.4,30.9,31.8,–,–,39.9,32.6,31.1
C=CCC(CNC(=O)OCc1ccccc1)O[Si](C)(C)C(C)(C)C (stereo not drawn),> 100,> 100,> 100,> 100,73.7,63.1,> 100,98.7,31.8,> 100,> 100
Cc1cc(S(=O)(=O)Nc2nnc3c(C(F)(F)F)cc(Cl)cn23)c(S)cc1Cl,> 100,> 100,> 100,> 100,> 100,> 100,> 100,> 100,> 100,> 100,> 100
O=C(O)C(CCc1ccccn1)c1ccccc1 (stereo not drawn),> 100,> 100,> 100,> 100,> 100,> 100,> 100,> 100,> 100,> 100,> 100
O=C(c1ccc2ccccc2c1)C1S(=O)(=O)OCCOS1(=O)=O,> 100,> 100,> 100,> 100,> 100,> 100,–,> 100,> 100,–,> 100
CC(C)CCC[C@@H](C)[C@H]1CC[C@H]2[C@@H]3CC=C4C[C@@H](OC(=O)c5cccc6c(=O)c7ccccc7[nH]c56)CC[C@]4(C)[C@H]3CC[C@]12C,> 75,–,> 75,> 75,–,> 75,> 75,> 75,> 75,> 75,> 75
Cc1csc2c1C(=O)c1ccsc1C2=O,5.9,3.29,–,2.95,4.7,8.85,32.5,16,1.82,5.31,0.889
CC[C@]12C=CCN3CCC4(c5cc(N=Nc6ccccc6)c(OC)cc5N(C)[C@H]4[C@@](O)(C(=O)OC)[C@@H]1OC(C)=O)[C@@H]32 (stereo partly drawn),55.6,34.9,35.6,36.8,31.2,29.8,32.2,32.4,44.2,58.7,35.8
O=C(C1=C(C(=O)c2ccccc2)SC2(S1)C(C(=O)c1ccccc1)=C(C(=O)c1ccccc1)Sc1c2ssc1=O)c1ccccc1,> 100,> 100,> 100,> 100,> 100,> 100,31.2,> 100,> 100,> 100,> 100
CC(=O)N(CN1C(=O)CCC1C(=O)O)c1ccccc1 (stereo not drawn),> 100,> 100,> 100,> 100,> 100,> 100,> 100,> 100,> 100,> 100,> 100
CC(=O)NC1C(CO)O[C@@H]2OC(C)(C)O[C@H]12 (stereo partly drawn),> 100,–,> 100,> 100,> 100,> 100,> 100,> 100,–,> 100,> 100
CCCCC[C@@H]1OCO[C@@]2(C)/C=C(C)/C=C/C(=O)O[C@H]([C@@H](C)[C@@H](O)[C@H](C)[C@@]3(O)C[C@@H](O[C@H]4C[C@@H](O)[C@H](O)[C@@H](C)O4)[C@H](C)[C@@H](C)O3)[C@@H](OC)/C=C/C=C(\C)C[C@@H]1[C@@H]2O (stereo in doubt),15.8,7.9,16.5,1.68,0.609,–,0.0829,0.676,< 0.005,6.67,0.203
CN=C(Nn1cnnc1)OC,> 100,> 100,–,> 100,> 100,> 100,> 100,> 100,> 100,> 100,> 100
COC(=O)C(/C(=N/NC(=O)c1ccncc1)C(=O)Nc1ccccc1OC)c1nc2ccc(Cl)cc2[nH]c1=O (stereo not drawn),> 100,–,> 100,> 100,> 100,> 100,> 100,> 100,> 100,> 100,> 100
c1ccc(CCN2CCCCCC2)nc1,> 100,> 100,> 100,> 100,> 100,> 100,> 100,> 100,> 100,> 100,–
O=C(CC(O)(C(F)(F)F)C(F)(F)F)C(CCCl)C(O)(C(F)(F)F)C(F)(F)F (stereo not drawn),46.7,> 100,–,> 100,> 100,73.3,64.8,> 100,71,> 100,> 100
